# Data reported in patent publication US11440909B2, “10H-phenothiazine ferroptosis inhibitor as well as the preparative method and the use thereof” (CHENGDU HENGHAO INVESTMENT CO. LIMITED, priority 2018, dated 2022).
# System: fibrosarcoma cell line HT1080
# Assay: Ferroptosis screening model (MTT method), Erastin-induced ferroptosis
# Format: cell-based, human
# Details: HT1080, ferroptosis inducer Erastin, 72 h, average of three tests, read-out: EC50
# Summary of the method: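 HT1080 cells adhered 24 h, then received compound plus Erastin ([…] final) for 72 h at 37 °C, 5% CO2, in triplicate. Viability by MTT with SDS solubilisation, absorbance at 570 nm; inhibition of ferroptosis fitted to give EC50.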
row,SMILES,EC50 [nM]
1,"CC(c1ccc2c(c1)Nc1ccccc1S2)S(=O)(=O)N1CCN(C(=O)c2ccc3c(c2)OCCO3)CC1 (stereo not shown) [Compound C19, (4-((1-(10H-phenothiazin-2-yl)ethyl)sulfonyl)piperazin-1-yl)(2,3-dihydrobenzo[b][1,4]dioxane-6-yl)ketone]",129
2,"COc1ccccc1N1CCN(S(=O)(=O)C(C)c2ccc3c(c2)Nc2ccccc2S3)CC1 (stereo not shown) [Compound C22, 2-(1-((4-(2-methoxylphenyl)piperazin-1-yl)sulfonyl)ethyl)-10H-phenothiazine]",730
3,"CC(c1ccc2c(c1)Nc1ccccc1S2)S(=O)(=O)N1CCN(c2ccccc2)CC1 (stereo not shown) [Compound C24, 2-(1-((4-phenylpiperazin-1-yl)sulfonyl)ethyl)-10H-phenothiazine]",417
4,"CC(c1ccc2c(c1)Nc1ccccc1S2)S(=O)(=O)N1CCN(c2ccccc2)CC1 (stereo not shown) [Compound C28, 2-(1-((4-phenylpiperazin-1-yl)sulfonyl)ethyl)-10H-phenothiazine]",142
5,"CC(c1ccc2c(c1)Nc1ccccc1S2)S(=O)(=O)N1CC[C@H](CNC(=O)OC(C)(C)C)C1 (stereo partly drawn) [Compound C33, t-butyl (((3R)-1-((1-(10H-phenothiazin-2-yl)ethyl)sulfonyl)pyrrolin-3-yl)methyl)carbamate]",327

# Same assay, conditions: Homo sapiens, HT-1080, 72 h, HT1080, ferroptosis inducer Erastin, 72 h, average of three tests, read-out: EC50
row,SMILES,EC50 [nM]
1,"CC(C)N1CCN(S(=O)(=O)C(C)c2ccc3c(c2)Nc2ccccc2S3)CC1 (stereo not shown) [Compound C4, 2-(1-((4-isopropylpiperazin-1-yl)sulfonyl)ethyl)-10H-phenothiazine]",29
2,"CC(c1ccc2c(c1)Nc1ccccc1S2)S(=O)(=O)N1CCN(Cc2ccc3c(c2)OCO3)CC1 (stereo not shown) [Compound C5, 2-(1-((4-(benzo[d][1,3]dioxa-5-ylmethyl)piperazin-1-yl)sulfonyl)ethyl)-10H-phenothiazine]",35
3,"CC(c1ccc2c(c1)Nc1ccccc1S2)S(=O)(=O)N1CCN(CC(=O)N2CCCC2)CC1 (stereo not shown) [Compound C6, 2-(4-((1-(10H-phenothiazin-2-yl)ethyl)sulfonyl)piperazin-1-yl)-1-(pyrrolin-1-yl)-1-ethanone]",185
4,"CC(c1ccc2c(c1)Nc1ccccc1S2)S(=O)(=O)N1CCN(CCCN(C)C)CC1 (stereo not shown) [Compound C7, 3-(4-((1-(10H-phenothiazin-2-yl)ethyl)sulfonyl)piperazin-1-yl)-N,N-dimethylpropan-1-amine]",46
5,"CC(c1ccc2c(c1)Nc1ccccc1S2)S(=O)(=O)N1C2CCC1CC(O)C2 (stereo not shown) [Compound C8, 8-((1-(10H-phenothiazin-2-yl)ethyl)sulfonyl)-8-azabicyclo[3.2.1]-3-octanol]",46
6,"CC(c1ccc2c(c1)Nc1ccccc1S2)S(=O)(=O)N1CCN(CCc2ccccc2)CC1 (stereo not shown) [Compound C9, 2-(1-((4-phenethylpiperazin-1-yl)sulfonyl)ethyl)-10H-phenothiazine]",85
7,"CCN1CCN(S(=O)(=O)C(C)c2ccc3c(c2)Nc2ccccc2S3)CC1 (stereo not shown) [Compound C10, 2-(1-((4-ethylpiperazin-1-yl)sulfonyl)ethyl)-10H-phenothiazine]",17
8,"CC(c1ccc2c(c1)Nc1ccccc1S2)S(=O)(=O)N1CCN(C(=O)C2CCCO2)CC1 (stereo not shown) [Compound C11, (4-((1-(10H-phenothiazin-2-yl)ethyl)sulfonyl)piperazin-1-yl)(tetrahydrofuran-2-yl)ketone]",269
9,"CC(c1ccc2c(c1)Nc1ccccc1S2)S(=O)(=O)N1CCN(CCN2CCOCC2)CC1 (stereo not shown) [Compound C12, 4-(2-(4-((1-(10H-phenothiazin-2-yl)ethyl)sulfonyl)piperazin-1-yl)ethyl)morpholine]",76
10,"CC(c1ccc2c(c1)Nc1ccccc1S2)S(=O)(=O)N1CCN(CCO)CC1 (stereo not shown) [Compound C13, 2-(4-((1-(10H-phenothiazin-2-yl)ethyl)sulfonyl)piperazin-1-yl)-1-ethanol]",62
11,CC(c1ccc2c(c1)Nc1ccccc1S2)S(=O)(=O)N1CC[C@@H](O)C1 (stereo partly shown) [Compound C14],260
12,"CC(=O)N1CCN(S(=O)(=O)C(C)c2ccc3c(c2)Nc2ccccc2S3)CC1 (stereo not shown) [Compound C15, 1-(4-((1-(10H-phenothiazin-2-yl)ethyl)sulfonyl)piperazin-1-yl)-1-ethanone]",132
13,"CC(c1ccc2c(c1)Nc1ccccc1S2)S(=O)(=O)N1CCN(S(C)(=O)=O)CC1 (stereo not shown) [Compound C16, 2-(1-((4-(methylsulfonyl)piperazin-1-yl)sulfonyl)ethyl)-10H-phenothiazine]",35
14,"CC(c1ccc2c(c1)Nc1ccccc1S2)S(=O)(=O)N1CCN(c2ccncc2)CC1 (stereo not shown) [Compound C17, 2-(1-((4-(pyridin-4-yl)piperazin-1-yl)sulfonyl)ethyl)-10H-phenothiazine]",5
15,"CC(c1ccc2c(c1)Nc1ccccc1S2)S(=O)(=O)N1CCC(O)CC1 (stereo not shown) [Compound C18, 1-((1-(10H-phenothiazin-2-yl)ethyl)sulfonyl)-4-piperidinol]",79
16,"CC(c1ccc2c(c1)Nc1ccccc1S2)S(=O)(=O)N1CCSCC1 (stereo not shown) [Compound C20, 2-(1-(thiomorpholinesulfonyl)ethyl)-10H-phenothiazine]",31
17,CC(c1ccc2c(c1)Nc1ccccc1S2)S(=O)(=O)N1CCCC1 (stereo not shown) [Compound C21],257
18,CCOC(=O)C1CCN(S(=O)(=O)C(C)c2ccc3c(c2)Nc2ccccc2S3)CC1 (stereo not shown) [Compound C23],620
19,"CC(=O)N1CCCN(S(=O)(=O)C(C)c2ccc3c(c2)Nc2ccccc2S3)CC1 (stereo not shown) [Compound C25, 1-(4-((1-(10H-phenothiazin-2-yl)ethyl)sulfonyl)-1,4-homopiperazin-1-yl)-1-ethanone]",405

row,SMILES,EC50 [nM]
1,"CC(c1ccc2c(c1)Nc1ccccc1S2)S(=O)(=O)N1CCN(C(c2ccccc2)c2ccccc2)CC1 (stereo not shown) [Compound C26, 2-(1-((4-diphenylmethylpiperazin-1-yl)sulfonyl)ethyl)-10H-phenothiazine]",388
2,"CC(c1ccc2c(c1)Nc1ccccc1S2)S(=O)(=O)N1CCN(NC(=O)OC(C)(C)C)CC1 (stereo not shown) [Compound C27, t-butyl 4-((1-(10H-phenothiazin-2-yl)ethyl)sulfonyl)piperazin-1-carbamate]",256
3,"CC(c1ccc2c(c1)Nc1ccccc1S2)S(=O)(=O)N1CCC[C@H](NC(=O)OC(C)(C)C)C1 (stereo partly drawn) [Compound C29, t-butyl ((3S)-1-((1-(10H-phenothiazin-2-yl)ethyl)sulfonyl)piperidin-3-yl) carbamate]",228
4,"CC(c1ccc2c(c1)Nc1ccccc1S2)S(=O)(=O)N1CCC(O)(c2ccc(Cl)cc2)CC1 (stereo not shown) [Compound C30, 1-((1-(10H-phenothiazin-2-yl)ethyl)sulfonyl)-4-(4-chlorophenyl)-4-piperidinol]",95
5,"CC(c1ccc2c(c1)Nc1ccccc1S2)S(=O)(=O)N1CC[C@H](NC(=O)OC(C)(C)C)C1 (stereo partly drawn) [Compound C31, t-butyl ((3S)-1-((1-(10H-phenothiazin-2-yl)ethyl)sulfonyl)pyrrolin-3-yl)carbamate]",399
6,"CC(c1ccc2c(c1)Nc1ccccc1S2)S(=O)(=O)N1CCC[C@@H](NC(=O)OC(C)(C)C)C1 (stereo partly drawn) [Compound C32, t-butyl ((3R)-1-((1-(10H-phenothiazin-2-yl)ethyl)sulfonyl)piperidin-3-yl)carbamate]",586
7,"CC(c1ccc2c(c1)Nc1ccccc1S2)S(=O)(=O)N1CCN(c2ccc(F)cc2)CC1 (stereo not shown) [Compound C34, 2-(1-((4-(4-fluorophenyl)piperazin-1-yl)sulfonyl)ethyl)-10H-phenothiazine]",233
8,"CC(c1ccc2c(c1)Nc1ccccc1S2)S(=O)(=O)N1CCCC(CNC(=O)OC(C)(C)C)C1 (stereo not shown) [Compound C35, t-butyl ((1-((1-(10H-phenothiazin-2-yl)ethyl)sulfonyl)piperidin-3-yl)methyl)carbamate]",342
9,"CC(c1ccc2c(c1)Nc1ccccc1S2)S(=O)(=O)N1CCN(Cc2ccc(Cl)cc2)CC1 (stereo not shown) [Compound C36, 2-(1-((4-(4-chlorobenzyl)piperazin-1-yl)sulfonyl)ethyl)-10H-phenothiazine]",129
10,"CC(c1ccc2c(c1)Nc1ccccc1S2)S(=O)(=O)N1CCC(NC(=O)OC(C)(C)C)CC1 (stereo not shown) [Compound C37, t-butyl (1-((1-(10H-phenothiazin-2-yl)ethyl)sulfonyl)piperidin-4-yl)carbamate]",271
11,"CC(c1ccc2c(c1)Nc1ccccc1S2)S(=O)(=O)N1CCCC(CO)C1 (stereo not shown) [Compound C38, (1-((1-(10H-phenothiazin-2-yl)ethyl)sulfonyl)piperidin-3-yl)methanol]",229
12,"CCOC(=O)[C@@H]1CCCN(S(=O)(=O)C(C)c2ccc3c(c2)Nc2ccccc2S3)C1 (stereo partly drawn) [Compound C39, ethyl (3R)-1-((1-(10H-phenothiazin-2-yl)ethyl)sulfonyl)piperidin-3-formate]",244
13,"CC(c1ccc2c(c1)Nc1ccccc1S2)S(=O)(=O)N1CCCC(O)C1 (stereo not shown) [Compound C40, 1-((1-(10H-phenothiazin-2-yl)ethyl)sulfonyl)piperidin-3-ol]",142
14,CC(c1ccc2c(c1)Nc1ccccc1S2)S(=O)(=O)N1CC[C@H](O)C1 (stereo partly shown) [Compound C41],117
15,CC(c1ccc2c(c1)Nc1ccccc1S2)S(=O)(=O)N1CCC[C@@H]1C (stereo partly shown) [Compound C42],335
16,"CC(c1ccc2c(c1)Nc1ccccc1S2)S(=O)(=O)N1CCC(N2CCCCC2)CC1 (stereo not shown) [Compound C43, 2-(1-([1,4′-dipiperidin]-1′-ylsulfonyl)ethyl)-10H-phenothiazine]",49
17,"CC(c1ccc2c(c1)Nc1ccccc1S2)S(=O)(=O)N1C[C@@H](C)O[C@@H](C)C1 (stereo partly drawn) [Compound C44, (2S,6R)-4-((1-(10H-phenothiazin-2-yl)ethyl)sulfonyl)-2,6-dimethylmorpholine]",426
18,"CC1CCN(S(=O)(=O)C(C)c2ccc3c(c2)Nc2ccccc2S3)CC1 (stereo not shown) [Compound C45, 2-(1-((4-methylpiperidin-1-yl)sulfonyl)ethyl)-10H-phenothiazine]",226
19,"CC1CCCN(S(=O)(=O)C(C)c2ccc3c(c2)Nc2ccccc2S3)C1 (stereo not shown) [Compound C46, 2-(1-((3-methylpiperidin-1-yl)sulfonyl)ethyl)-10H-phenothiazine]",156
